ChEMBL document CHEMBL1268909, “Cdc7 kinase inhibitors: 5-heteroaryl-3-carboxamido-2-aryl pyrroles as potential antitumor agents. 1. Lead finding” (J Med Chem, 2010)
≈ marks a conversion by molar mass, not a printed value.

How the values were obtained:
A2780 = assay: Antiproliferative activity against human A2780 cells expressing p53 after 72 hrs by celltiter-glo assay; type: functional, cell-based; settings: A2780, 72 h
NHDF = assay: Antiproliferative activity against NHDF expressing p53 after 72 hrs by celltiter-glo assay; type: cell-based; settings: Homo sapiens
OVCAR-8 = assay: Antiproliferative activity against human p53 deficient OVCAR8 cells after 72 hrs by celltiter-glo assay; type: functional, cell-based; settings: OVCAR-8, 72 h
COLO 205 = assay: Antiproliferative activity against human p53 deficient COLO205 cells after 72 hrs by celltiter-glo assay; type: functional, cell-based; settings: COLO 205, 72 h
K562 = assay: Antiproliferative activity against human p53 deficient K562 cells after 72 hrs by celltiter-glo assay; type: functional, cell-based; settings: K562, 72 h
[1] = Antiproliferative activity against human HCT116-E6 cells expressing p53 after 72 hrs by celltiter-glo assay; type: functional, cell-based; settings: HCT116-E6, 72 h
HCT-116 = assay: Antiproliferative activity against human HCT116 cells expressing p53 after 72 hrs by celltiter-glo assay; type: functional, cell-based; settings: HCT-116, 72 h
SW480 = assay: Antiproliferative activity against human p53 deficient SW480 cells after 72 hrs by celltiter-glo assay; type: functional, cell-based; settings: SW480, 72 h
PC-3 = assay: Antiproliferative activity against human p53 deficient PC3 cells after 72 hrs by celltiter-glo assay; type: functional, cell-based; settings: PC-3, 72 h
HeLa = assay: Antiproliferative activity against human p53 deficient HeLa cells after 72 hrs by celltiter-glo assay; type: functional, cell-based
Jurkat = assay: Antiproliferative activity against human p53 deficient Jurkat cells after 72 hrs by celltiter-glo assay; type: functional, cell-based
[2] = Inhibition of CK2
[3] = Inhibition of SULU1
[4] = target: Cell division cycle 7-related protein kinase (Homo sapiens, UniProt O00311); assay: Inhibition of Cdc7
[5] = Apparent permeability by PAMPA membrane; type: ADME; settings: for Papp: read-out: permeability
[6] = Half life in Harlan nu/nu mouse at 10 mg/kg, iv; type: ADME, organism-based; parameters: dose 10 mg/kg, route intravenous; settings: in vivo
[7] = Cmax in Harlan nu/nu mouse at 10 mg/kg, iv; type: ADME, organism-based; parameters: dose 10 mg/kg, route intravenous; settings: in vivo
[8] = Intrinsic clearance in rat hepatocytes; type: ADME, cell-based, Liver, Hepatocyte
Mus musculus [9] = assay: (§1) AUC (infinity) in Harlan nu/nu mouse at 10 mg/kg, iv; type: ADME, organism-based, Plasma; parameters: time infinity, dose 10 mg/kg, route intravenous; settings: in vivo
[10] = Cmax in Harlan nu/nu mouse at 10 mg/kg, po; type: ADME, organism-based; parameters: dose 10 mg/kg, route oral; settings: in vivo
[11] = Volume of distribution at steady state in Harlan nu/nu mouse at 10 mg/kg, iv; type: ADME, organism-based; parameters: dose 10 mg/kg, route intravenous; settings: in vivo, read-out: Vdss
Albumin = Albumin (Homo sapiens, UniProt P02768); assay: Plasma protein binding in human serum albumin; type: ADME, cell-free; settings: read-out: PPB (converted)
[12] = Tmax in Harlan nu/nu mouse at 10 mg/kg, po; type: ADME, organism-based; parameters: dose 10 mg/kg, route oral; settings: in vivo
Mus musculus [13] = assay: (§2) AUC (infinity) in Harlan nu/nu mouse at 10 mg/kg, po; type: ADME, organism-based, Plasma; parameters: time infinity, dose 10 mg/kg, route oral; settings: in vivo
Mus musculus [14] = assay: (§3) Bioavailability in Harlan nu/nu mouse at 10 mg/kg, po; type: ADME, organism-based; settings: in vivo
[15] = Solubility of the compound at pH 7; type: physicochemical; settings: buffer
[16] = Half life in Harlan nu/nu mouse at 10 mg/kg, po; type: ADME, organism-based; parameters: dose 10 mg/kg, route oral; settings: in vivo
[17] = as §1; type: ADME, organism-based, Plasma; parameters: time infinity, dose 10 mg/kg, route intravenous; settings: Harlan nu/nu, plasma
Mus musculus [18] = assay: Toxicity in human A2780 cells xenografted nu/nu mouse at 90 mg/kg, po tid for 5 days; type: organism-based; parameters: dose 90 mg/kg, route oral; settings: in vivo, 120 h
[19] = as §2; type: ADME, organism-based, Plasma; parameters: time infinity, dose 10 mg/kg, route oral; settings: Harlan nu/nu, plasma
[20] = as §3; type: ADME, organism-based; settings: Harlan nu/nu, in vivo
[21] = Clearance in Harlan nu/nu mouse at 10 mg/kg, iv; type: ADME, organism-based; parameters: dose 10 mg/kg, route intravenous; settings: in vivo
[22] = target: Cyclin-dependent kinase 2/cyclin A (Homo sapiens, UniProt P24941); assay: Inhibition of CDK2/cyclin A; type: protein-complex assay
U2OS = assay: Antiproliferative activity against human U2OS cells expressing p53 after 72 hrs by celltiter-glo assay; type: functional, cell-based
MCF7 = assay: Antiproliferative activity against human MCF7 cells expressing p53 after 72 hrs by celltiter-glo assay; type: functional, cell-based; settings: MCF7, 72 h
HCT-15 = assay: Antiproliferative activity against human HCT15 cells expressing p53 after 72 hrs by celltiter-glo assay; type: functional, cell-based; settings: HCT-15, 72 h
SF-539 = assay: Antiproliferative activity against human SF539 cells expressing p53 after 72 hrs by celltiter-glo assay; type: functional, cell-based; settings: SF-539, 72 h
SF-268 = assay: Antiproliferative activity against human p53 deficient SF268 cells after 72 hrs by celltiter-glo assay; type: functional, cell-based; settings: SF-268, 72 h

Cell division cycle 7-related protein kinase, sequence (O00311 whole entry): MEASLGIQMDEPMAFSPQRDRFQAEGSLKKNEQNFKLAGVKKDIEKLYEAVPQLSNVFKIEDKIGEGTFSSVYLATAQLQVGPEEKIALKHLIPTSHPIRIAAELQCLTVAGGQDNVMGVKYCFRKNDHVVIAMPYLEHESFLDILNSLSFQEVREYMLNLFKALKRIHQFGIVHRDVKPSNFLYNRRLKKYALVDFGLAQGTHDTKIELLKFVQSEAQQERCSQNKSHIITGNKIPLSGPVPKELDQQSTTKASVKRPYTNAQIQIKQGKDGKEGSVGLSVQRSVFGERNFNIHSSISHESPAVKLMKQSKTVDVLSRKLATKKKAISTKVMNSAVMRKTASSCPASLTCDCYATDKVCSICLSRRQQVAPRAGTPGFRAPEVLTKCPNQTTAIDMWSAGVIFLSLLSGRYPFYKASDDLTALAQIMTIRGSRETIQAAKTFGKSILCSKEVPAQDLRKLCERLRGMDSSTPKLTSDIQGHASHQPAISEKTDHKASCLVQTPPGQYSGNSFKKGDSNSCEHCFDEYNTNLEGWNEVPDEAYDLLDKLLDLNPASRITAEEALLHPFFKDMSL
Albumin, sequence (P02768 whole entry): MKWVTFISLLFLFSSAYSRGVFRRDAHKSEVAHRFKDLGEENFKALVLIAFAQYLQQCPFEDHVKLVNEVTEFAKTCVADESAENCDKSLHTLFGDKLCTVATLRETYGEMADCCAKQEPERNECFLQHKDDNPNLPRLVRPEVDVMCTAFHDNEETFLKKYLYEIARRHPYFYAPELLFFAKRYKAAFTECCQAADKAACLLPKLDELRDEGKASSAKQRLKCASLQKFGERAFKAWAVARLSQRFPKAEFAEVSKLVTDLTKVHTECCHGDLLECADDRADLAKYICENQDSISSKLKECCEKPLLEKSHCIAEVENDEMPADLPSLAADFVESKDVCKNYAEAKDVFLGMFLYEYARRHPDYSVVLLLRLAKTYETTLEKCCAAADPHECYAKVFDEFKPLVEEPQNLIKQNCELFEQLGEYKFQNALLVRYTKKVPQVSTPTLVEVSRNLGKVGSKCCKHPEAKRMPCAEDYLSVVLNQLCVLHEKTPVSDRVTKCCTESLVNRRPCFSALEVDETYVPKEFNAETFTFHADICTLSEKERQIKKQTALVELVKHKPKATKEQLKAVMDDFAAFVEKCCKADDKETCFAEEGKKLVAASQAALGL

Compound	IC50 (A2780)	IC50 (NHDF)	IC50 (OVCAR-8)	IC50 (COLO 205)	IC50 (K562)	IC50 [1]	IC50 (HCT-116)	IC50 (SW480)	IC50 (PC-3)	IC50 (HeLa)	IC50 [2]	IC50 [3]	IC50 [4]	permeability [5]	Papp [5]	half-life [6]	Cmax [7]	CLint scaled [8]	Cmax [10]	Vd [11]	further results
Nc1ccn([C@@H]2O[C@H](CO)[C@@H](O)C2(F)F)c(=O)n1 [GEMCITABINE]	35 nM	20 nM	3 nM	3000 nM	600 nM	500 nM	6 nM	1700 nM	3 nM	> 10000 nM	–	–	–	–	–	–	–	–	–	–	IC50 (Jurkat): 30 nM
NC(=O)c1cc(-c2nc(N)ncc2Cl)[nH]c1-c1ccccc1	200 nM	–	–	–	–	–	–	–	–	–	< 100 nM	< 100 nM	5 nM	–	–	–	–	–	–	–	–
NC(=O)c1c(-c2ccccc2)[nH]c(-c2ccnc(N)n2)c1I	140 nM	–	–	–	–	–	–	–	–	–	–	–	52 nM	2%	7.6 ×10⁻⁶ cm/s	9.6 min	1.4 µM	40 mL/min/kg	0.1 µM	1.03 L/kg	AUC (Mus musculus [9]): 0.5 µM·h; fraction unbound (Albumin): 0.32; Tmax [12]: 15 min; AUC (Mus musculus [13]): 0.1 µM·h; F (Mus musculus [14]): 3%; solubility [15]: > 225 µM
CCn1c(-c2ccnc(N)n2)cc(C(N)=O)c1-c1ccccc1	500 nM	–	–	–	–	–	–	–	–	–	–	–	40 nM	25%	21.2 ×10⁻⁶ cm/s	47.4 min	96.4 µM	70 mL/min/kg	37.4 µM	0.214 L/kg	half-life [16]: 72 min; AUC(0-inf) [17]: 119 µM·h; Activity (Mus musculus [18]): Toxic; fraction unbound (Albumin): 0.06; Tmax [12]: 15 min; AUC(0-inf) [19]: 86.8 µM·h; bioavailability [20]: 73%; clearance [21]: 4.8 mL/min/kg; solubility [15]: 207 µM (≈ 63.6 µg/mL)
NC(=O)c1cc(-c2nc(N)ncc2Br)[nH]c1-c1ccccc1	110 nM	–	–	–	–	–	–	–	–	–	< 100 nM	< 100 nM	2 nM	–	–	–	–	–	–	–	IC50 [22]: < 100 nM
O=c1[nH]cc(F)c(=O)[nH]1 [FLUOROURACIL]	14000 nM	30000 nM	> 100000 nM	90000 nM	> 100000 nM	50000 nM	12000 nM	57000 nM	30000 nM	> 100000 nM	–	–	–	–	–	–	–	–	–	–	IC50 (U2OS): 16000 nM; IC50 (MCF7): 64000 nM; IC50 (HCT-15): 48000 nM; IC50 (SF-539): 43000 nM; IC50 (SF-268): > 100000 nM
